These results are taken from paper PMC3916150 (Journal of medicinal chemistry, 2013).

Read-outs that look alike come from different tables or passages of the source.

One assay deals with T1, human RXRα (Homo sapiens, UniProt P19793).
T1 sequence (P19793 1-462): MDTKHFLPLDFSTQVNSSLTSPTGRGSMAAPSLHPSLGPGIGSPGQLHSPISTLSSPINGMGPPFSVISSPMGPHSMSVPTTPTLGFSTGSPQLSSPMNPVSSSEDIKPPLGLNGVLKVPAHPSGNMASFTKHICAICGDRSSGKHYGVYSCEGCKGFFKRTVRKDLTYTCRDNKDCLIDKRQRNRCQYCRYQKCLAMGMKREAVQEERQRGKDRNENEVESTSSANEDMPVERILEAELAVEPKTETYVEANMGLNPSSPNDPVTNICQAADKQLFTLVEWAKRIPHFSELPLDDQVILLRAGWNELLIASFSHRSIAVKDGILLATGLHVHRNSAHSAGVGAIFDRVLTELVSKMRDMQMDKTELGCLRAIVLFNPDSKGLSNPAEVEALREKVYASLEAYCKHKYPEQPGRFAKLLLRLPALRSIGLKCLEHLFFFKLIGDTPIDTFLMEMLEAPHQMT
Description: RXRE-luciferase reporter transcription assay in HCT-116 cells. The class given is cell-based. To be noted: 25 nM and 100 nM (both assays), HCT-116, Figure 5A and B. Background: Reporter assays use an easily measured gene product as a stand-in for the process of interest.

Assay [1] deals with HuT-78 (human T-cell lymphoma) cells. Description: Caspase-Glo 3/7 apoptosis assay in CTCL cells. The format is cell-based. As to conditions: 100 nM.
The next assay concerns VDR-RXR. To be noted: for inhibition of VDR activity compared with compound 1: both assays (10^-6 M and 10^-7 M), ER6 VDRE.
The next assay concerns the target T2, human RARα (Homo sapiens, UniProt P10276).
T2 sequence (P10276 1-462): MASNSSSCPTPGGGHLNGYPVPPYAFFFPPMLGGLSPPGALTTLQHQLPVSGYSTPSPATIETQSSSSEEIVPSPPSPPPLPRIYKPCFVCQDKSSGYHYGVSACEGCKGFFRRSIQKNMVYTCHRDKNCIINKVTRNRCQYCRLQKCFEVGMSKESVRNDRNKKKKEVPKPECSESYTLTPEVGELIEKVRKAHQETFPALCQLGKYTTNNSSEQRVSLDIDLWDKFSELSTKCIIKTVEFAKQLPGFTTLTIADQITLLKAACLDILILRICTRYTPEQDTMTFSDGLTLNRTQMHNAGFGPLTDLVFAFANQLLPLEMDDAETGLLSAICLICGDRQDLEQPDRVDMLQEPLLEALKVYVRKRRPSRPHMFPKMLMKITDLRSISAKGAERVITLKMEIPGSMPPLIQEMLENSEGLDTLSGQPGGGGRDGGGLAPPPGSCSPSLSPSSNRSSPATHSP
Kind of assay: RAR/RARE-luciferase reporter assay in HCT-116 cells. As to conditions: RARE-luciferase, versus all-trans retinoic acid.

A further assay deals with T3, human RXR (Homo sapiens, UniProt P19793).
T3 sequence (P19793 1-462) 1: T1 sequence (P19793 1-462)
T3 sequence (P19793 1-462) 2: T1 sequence (P19793 1-462)
Kind of assay: RXR mammalian two-hybrid. As to conditions: for RXR-mediated transcriptional activity: data in Figures 4 and 5 (M2H and RXRE assays); for RXR binding and homodimerization (luciferase output) compared to compound 1: 24 h.

[2] abbreviates: 100 nM analog + 1 nM 1,25D, Fig. 7C.
Where [3] appears, read: 100 nM analog + 1 nM 1,25D, Fig. 7E.
The mark [4] stands for this setting: 1,000 nM analog + 1 nM 1,25D, Fig. 7B.
[5] abbreviates: 1,000 nM analog + 1 nM 1,25D, Fig. 7F.
The mark [6] stands for this setting: 100 nM analog + 1 nM 1,25D, Fig. 7A.

Turning to `C=C(c1ccc(C(=O)O)cc1)c1cc2c(cc1C)C(C)(C)C=CC2(C)C` [Compound 10, 4-[1-(3,5,5,8,8-Pentamethyl-2–5,8-dihydronaphthyl)vinyl]benzoic Acid, reference compound], on human RXRα, the “RXRE-mediated transcriptional activity compared to compound 1” value is given as “transcriptional activity consistently above the compound 1 level”. Also, the “apoptosis compared to ethanol vehicle control” value in assay [1] (24 hours) is given as “greater than the ethanol vehicle control”. For the same compound, the “inhibition of VDR activity compared with compound 1” value with VDR-RXR is “inhibited VDR activity less”. Further, the “RAR agonist activity compared to bexarotene” value at human RARα is listed as “greater RAR agonist activity”.

As for `Cc1cc2c(cc1-c1cccc(/C=C/C(=O)O)c1)C(C)(C)CCC2(C)C` [Compound 12, (E)-3-(3-(1,2,3,4-tetrahydro-1,1,4,4,6-pentamethylnaphthalen-7-yl)phenyl)acrylic acid, reference compound], the “apoptosis compared to ethanol vehicle control” value in assay [1] (24 hours) was “greater than the ethanol vehicle control”. Further, the “DR3 VDRE-mediated activity versus 1,25D alone” value in the assay on VDR-RXR (setting [2]) was “significantly lower”. The “CYP24 natural promoter 1,25D-VDR transactivation versus 1,25D alone” value in the assay on VDR-RXR (setting [3]) and in the assay on VDR-RXR (setting [5]) was “significant inhibiton” in each case. Besides, in the assay on VDR-RXR (setting [4]), the “ER6 VDRE-mediated activity versus 1,25D alone” value was “significantly lower”. For the same compound, at human RARα, the “RAR agonist activity compared to bexarotene” value is “slightly lower RAR-directed activity”. Moreover, on human RXR, the RXR-mediated transcriptional activity entry is on record as “consistently lower RXR-mediated transcriptional activity”.

Consider `Cc1ccc(/C=C/C(=O)O)cc1-c1cc2c(cc1C)C(C)(C)CCC2(C)C` [Compound 15, (E)-3-(3-(1,2,3,4-tetrahydro-1,1,4,4,6-pentamethylnaphthalen-7-yl)-4-methylphenyl)acrylic acid], for which the “ER6 VDRE-mediated activity versus 1,25D alone” value in the assay with VDR-RXR (setting [6]) and with VDR-RXR (setting [4]) was “significantly lower” each time. Further, the “DR3 VDRE-mediated activity versus 1,25D alone” value with VDR-RXR (1,000 nM analog + 1 nM 1,25D, Fig. 7D) is “significantly higher”. Further, at human RARα, the “RAR agonist activity compared to bexarotene” value is recorded as “greater RAR agonist activity”. In addition, the “RXR binding and homodimerization (luciferase output) compared to compound 1” value on human RXR (25 nM, HCT-116, Figure 4A) is recorded as “greater activity than compound 1”; at human RXR (100 nM, HCT-116, Figure 4B), “high activity compared with compound 1”. Also, the RXR-mediated transcriptional activity result at human RXR is “consistently more active”.

For the compound `C=C(c1ccc(C(=O)O)c(F)c1)c1cc2c(cc1C)C(C)(C)C=CC2(C)C` [Compound 19, 2-Fluoro-4-(1-(1,4-dihydro-1,1,4,4,6-pentamethylnaphthalen-7-yl)vinyl)benzoic acid], the “apoptosis compared to ethanol vehicle control” value in assay [1] (24 hours) and in assay [1] (48 hours) was “greater than the ethanol vehicle control” each time. For the same compound, the “CYP24 natural promoter 1,25D-VDR transactivation versus 1,25D alone” value with VDR-RXR (setting [3]) was “significant inhibiton”. Further, in the assay on VDR-RXR (setting [4]), the “ER6 VDRE-mediated activity versus 1,25D alone” value is listed as “significantly lower”. The “RAR agonist activity compared to bexarotene” value on human RARα is listed as “greater RAR agonist activity”. At human RXR, the RXR-mediated transcriptional activity entry is given as “consistently lower RXR-mediated transcriptional activity”.

In the case of `Cc1cc2c(cc1-c1cc(/C=C/C(=O)O)ccc1C(F)(F)F)C(C)(C)CCC2(C)C` [Compound 16, (E)-3-(4-(trifluoromethyl)-3-(1,2,3,4-tetrahydro-1,1,4,4,6-pentamethylnaphthalen-7-yl)phenyl)acrylic acid], the “apoptosis compared to ethanol vehicle control” value in assay [1] (24 hours) is on record as “greater than the ethanol vehicle control”. In addition, the “ER6 VDRE-mediated activity versus 1,25D alone” value with VDR-RXR (setting [4]) is reported as “significantly lower”. The “RAR agonist activity compared to bexarotene” value at human RARα was “slightly lower RAR-directed activity”. For the same compound, at human RXR, the RXR-mediated transcriptional activity result is “consistently lower RXR-mediated transcriptional activity”.

For `Cc1cc2c(cc1-c1cc(/C=C/C(=O)O)ccc1O)C(C)(C)C=CC2(C)C` [Compound 18, (2E)-3-(3-(1,4-dihydro-1,1,4,4,6-pentamethylnaphthalen-7-yl)-4-hydroxyphenyl)acrylic acid], the “apoptosis compared to ethanol vehicle control” value in assay [1] (24 hours) and in assay [1] (48 hours) was “greater than the ethanol vehicle control” each time. Moreover, the “CYP24 natural promoter 1,25D-VDR transactivation versus 1,25D alone” value with VDR-RXR (setting [3]) and in the assay with VDR-RXR (setting [5]) was “significant inhibiton” in each case. The “ER6 VDRE-mediated activity versus 1,25D alone” value in the assay on VDR-RXR (setting [4]) is “significantly lower”. Also, the “RAR agonist activity compared to bexarotene” value at human RARα is “approximately equal to bexarotene”. For the same compound, the “RXR binding and homodimerization (luciferase output) compared to compound 1” value at human RXR (25 nM, HCT-116, Figure 4A) is “approaching statistical significance”. For the same compound, the RXR-mediated transcriptional activity entry on human RXR was “consistently more active”.

`Cc1cc2c(cc1C1(c3ccc(C(=O)O)cn3)CC1)C(C)(C)CCC2(C)C` [Compound 9, 6-[1-(3,5,5,8,8-Pentamethyl-5,6,7,8-tetrahydronaphthalen-2-yl)cyclopropyl]nicotinic Acid, reference compound]: the “apoptosis compared to ethanol vehicle control” value in assay [1] (24 hours) and in assay [1] (48 hours) was “greater than the ethanol vehicle control” in each case. Moreover, the “ER6 VDRE-mediated activity versus 1,25D alone” value in the assay on VDR-RXR (setting [6]) and in the assay on VDR-RXR (setting [4]) was “significantly lower” each time.

Consider `Cc1cc2c(cc1-c1cc(/C=C/C(=O)O)ccc1O)C(C)(C)CCC2(C)C` [Compound 11, (E)-3-(3-(1,2,3,4-tetrahydro-1,1,4,4,6-pentamethylnaphthalen-7-yl)-4-hydroxyphenyl)acrylic acid, reference compound], for which the “ER6 VDRE-mediated activity versus 1,25D alone” value with VDR-RXR (setting [6]) and in the assay on VDR-RXR (setting [4]) was “significantly lower” in each case. For the same compound, the “RAR agonist activity compared to bexarotene” value on human RARα is given as “slightly lower RAR-directed activity”. Further, the “RXR binding and homodimerization (luciferase output) compared to compound 1” value on human RXR (25 nM, HCT-116, Figure 4A) is reported as “greater activity than compound 1”; at human RXR (100 nM, HCT-116, Figure 4B) it was “high activity compared with compound 1”. Moreover, on human RXR, the RXR-mediated transcriptional activity result is “consistently more active”.

On to `Cc1ccc(/C=C/C(=O)O)cc1-c1cc2c(cc1C)C(C)(C)C=CC2(C)C` [Compound 17, (2E)-3-(3-(1,4-dihydro-1,1,4,4,6-pentamethylnaphthalen-7-yl)-4-methylphenyl)acrylic acid], for which the “apoptosis compared to ethanol vehicle control” value in assay [1] (24 hours) and in assay [1] (48 hours) was “greater than the ethanol vehicle control” each time. Besides, the “DR3 VDRE-mediated activity versus 1,25D alone” value in the assay on VDR-RXR (setting [2]) is given as “significantly lower”. For the same compound, in the assay with VDR-RXR (setting [4]), the “ER6 VDRE-mediated activity versus 1,25D alone” value was “significantly lower”. Also, the “inhibition of VDR activity compared with compound 1” value in the assay on VDR-RXR is listed as “inhibited VDR activity less”. At human RARα, the “RAR agonist activity compared to bexarotene” value is on record as “greater RAR agonist activity”. The RXR-mediated transcriptional activity result at human RXR is reported as “consistently lower RXR-mediated transcriptional activity”.

Turning to `Cc1cc2c(cc1C1(c3ncc(C(=O)O)cn3)CC1)C(C)(C)CCC2(C)C` [Compound 14], the “apoptosis compared to ethanol vehicle control” value in assay [1] (24 hours) and in assay [1] (48 hours) was “greater than the ethanol vehicle control” in each case. The “ER6 VDRE-mediated activity versus 1,25D alone” value in the assay with VDR-RXR (setting [4]) was “significantly lower”. The “inhibition of VDR activity compared with compound 1” value in the assay on VDR-RXR was “inhibited VDR activity less”. Besides, the “RAR agonist activity compared to bexarotene” value on human RARα is “greater RAR agonist activity”.

As for “Methyl 2-(1-(1,2,3,4-tetrahydro-1,1,4,4,6-pentamethylnaphthalen-7-yl)vinyl)pyridine-5-carboxylate [Compound 13]”, the “apoptosis compared to ethanol vehicle control” value in assay [1] (24 hours) and in assay [1] (48 hours) was “greater than the ethanol vehicle control” throughout. Further, the “ER6 VDRE-mediated activity versus 1,25D alone” value in the assay on VDR-RXR (setting [4]) is recorded as “significantly lower”. Besides, the “inhibition of VDR activity compared with compound 1” value in the assay with VDR-RXR is reported as “inhibited VDR activity less”. Moreover, the “RAR agonist activity compared to bexarotene” value at human RARα is given as “greater RAR agonist activity”.
